Experimental data from patent US11413360B2, “Dual mode radiotracer and—therapeutics” (priority 2017, dated 2022).
Where two headings read alike, the source gives them in different places. Values belong to the compound of their own block, whether it stands above or below them.

Legend:
[1] = target: T1, Human Serum Albumin (Homo sapiens, UniProt P02768); experiment: Literature HSA binding of reference substances (Yamazaki et al.) for HSA-column calibration; conditions: logarithmic K of human serum albumin binding
T1 sequence (P02768 25-609): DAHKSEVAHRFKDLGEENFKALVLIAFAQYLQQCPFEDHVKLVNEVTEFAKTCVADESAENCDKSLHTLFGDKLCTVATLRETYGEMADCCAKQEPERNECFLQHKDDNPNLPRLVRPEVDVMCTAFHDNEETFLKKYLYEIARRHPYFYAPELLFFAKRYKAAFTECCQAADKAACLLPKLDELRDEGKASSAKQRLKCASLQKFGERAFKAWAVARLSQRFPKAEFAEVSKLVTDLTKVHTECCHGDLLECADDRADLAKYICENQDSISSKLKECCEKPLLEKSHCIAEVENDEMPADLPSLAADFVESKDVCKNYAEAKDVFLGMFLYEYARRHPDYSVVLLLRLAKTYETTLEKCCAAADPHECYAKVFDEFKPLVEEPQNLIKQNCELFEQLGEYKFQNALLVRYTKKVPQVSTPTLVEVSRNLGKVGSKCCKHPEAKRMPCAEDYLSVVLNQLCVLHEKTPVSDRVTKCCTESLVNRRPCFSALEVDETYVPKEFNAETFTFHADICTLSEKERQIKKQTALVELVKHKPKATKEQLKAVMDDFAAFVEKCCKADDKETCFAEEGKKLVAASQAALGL
Description: The mobile phase (A: NH4OAc, 50 mM in water, pH 7 and B: isopropanol) was freshly prepared for each experiment and only used for one day. The column was kept at room temperature and each run was stopped after detection of the signal to reduce the acquisition time. All substances were dissolved in a 0.5 mg/ml concentration in 50% 2-propanol and 50% 50 mM pH 6.9 ammonium acetate buffer. […] All nine reference substances (see Table 1) were injected consecutively to establish a non-linear regression with OriginPro 2016G; see FIG. 1.
HSA literature value of human serum albumin binding in [%]; Log K HAS logarithmic K of human serum albumin binding.

[2] = target: T1, Human Serum Albumin; conditions: literature value of human serum albumin binding; cited from earlier work
[3] = tested on: LNCaP cells; experiment: Internalization of radiolabelled ligands into LNCaP cells; format: cell-based; conditions: 1 hour, % of reference ligand ([125I]I-BA)KuE
Description: Subsequent to the removal of the culture medium, the cells were washed once with 500 μL DMEM-F12 (5% BSA) and left to equilibrate for at least 15 min at 37° C. in 200 μL DMEM-F12 (5% BSA). Each well was treated with either 25 μL of either DMEM-F12 (5% BSA) or a 100 μM PMPA solution for blockade. […] The experiment was terminated by placing the 24-well plate on ice for 3 min and consecutive removal of the medium. Each well was rinsed with 250 μL HBSS and the fractions from these first two steps combined, representing the amount of free radioligand. Removal of surface bound activity was accomplished by incubation of the cells with 250 μL of ice-cold PMPA (10 μM in PBS) solution for 5 min and rinsed again with another 250 μL of ice-cold PBS. The internalized activity was determined by incubation of the cells in 250 μL 1 M NaOH and the combination with the fraction of a subsequent wash step with 250 μL 1.0 M NaOH. Each experiment (control and blockade) was performed in triplicate. Free, surface bound and internalized activity was quantified in a γ-counter. […] Data were corrected for non-specific internalization and normalized to the specific-internalization observed for the radioiodinated reference compound.

[4] = target: T2, PSMA (Homo sapiens, UniProt Q04609); experiment: Determination of PSMA affinity (IC50), competition with ([125I]I-BA)KuE on LNCaP cells; format: binding; conditions: ([125I]I-BA)KuE 0.2 nM
T2 construct: endogenous in cells; host or cells: LNCaP cells
T2 sequence (Q04609 whole entry): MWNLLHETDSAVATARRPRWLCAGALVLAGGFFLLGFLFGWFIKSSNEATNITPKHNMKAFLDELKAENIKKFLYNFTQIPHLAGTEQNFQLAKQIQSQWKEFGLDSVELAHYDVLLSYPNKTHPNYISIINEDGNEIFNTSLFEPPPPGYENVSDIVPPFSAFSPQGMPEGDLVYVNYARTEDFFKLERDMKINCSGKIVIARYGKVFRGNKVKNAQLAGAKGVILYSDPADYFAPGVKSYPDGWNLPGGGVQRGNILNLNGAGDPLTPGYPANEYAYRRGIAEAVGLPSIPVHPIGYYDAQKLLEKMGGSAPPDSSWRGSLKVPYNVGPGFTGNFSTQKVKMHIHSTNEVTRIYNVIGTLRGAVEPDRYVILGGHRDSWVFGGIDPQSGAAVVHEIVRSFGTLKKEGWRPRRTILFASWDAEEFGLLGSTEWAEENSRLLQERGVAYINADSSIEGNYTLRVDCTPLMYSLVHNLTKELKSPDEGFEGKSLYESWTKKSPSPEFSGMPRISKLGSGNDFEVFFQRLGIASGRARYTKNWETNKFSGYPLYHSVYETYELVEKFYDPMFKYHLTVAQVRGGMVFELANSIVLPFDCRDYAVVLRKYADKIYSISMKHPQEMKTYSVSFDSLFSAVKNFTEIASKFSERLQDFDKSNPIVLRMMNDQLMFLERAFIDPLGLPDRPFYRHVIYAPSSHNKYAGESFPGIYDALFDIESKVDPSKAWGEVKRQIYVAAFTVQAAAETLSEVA
Description: After removal of the culture medium, the cells were treated once with 500 μL of HBSS (Hank's balanced salt solution, Biochrom, Berlin, Germany, with addition of 1% bovine serum albumin (BSA)) and left 15 min on ice for equilibration in 200 μL HBSS (1% BSA). […] Quantification of bound and free radioligand was accomplished in a γ-counter.

[5] = Octanol-water partition coefficient (log D) of radiolabelled ligands; format: physicochemical; conditions: n = 6
Description: Approximately 1 MBq of the labelled tracer was dissolved in 1 mL of a 1:1 mixture (by volumes) of phosphate buffered saline (PBS, pH 7.4) and n-octanol in an Eppendorf tube. After vigorous mixing of the suspension for 3 minutes at room temperature, the vial was centrifuged at 15000 g for 3 minutes (Biofuge 15, Heraus Sepatech, Osterode, Germany) and 100 μL aliquots of both layers were measured in a gamma counter. The experiment was repeated at least six times.

[6] = target: T1, Human Serum Albumin; experiment: HSA binding on Chiralpak HSA column; format: in vitro ADME
[7] = cited from earlier work
[8] = IC50, natF-L (uncomplexed), 1 h, 4° C., mean ± SD
[9] = IC50, natGa-natF-L, 1 h, 4° C., mean ± SD
[10] = pH 7.4, 68Ga-natF-L, n-octanol/PBS pH 7.4
[11] = 68Ga-natF-L, 0.5 nM, 37° C., mean ± SD
[12] = pH 7.4, 18F-L, n-octanol/PBS pH 7.4
[13] = 18F-L, 0.5 nM, 37° C., mean ± SD
[14] = 177Lu-natF-L, 0.5 nM, 37° C., mean ± SD
[15] = natLu-natF-L, 1 h, 4° C., mean ± SD, read-out: IC50
[16] = n-octanol/PBS, pH 7.4, 177Lu-natF-L

Compound: Nc1ccccc1 [Aniline]
Log K HSA [1]: −0.79 | Lit. HSA % [2]: 14.06%

Compound: O=C(O)c1ccccc1 [Benzoic Acid]
Lit. HSA % [2]: 34.27%

Compound: O=C(O)CC[C@H](NC(=O)N[C@@H](CCCCNC(=O)c1ccc(F)nc1)C(=O)O)C(=O)O [DCFPyL, reference compound]
Internalization ([3]; references): DCFPyL 118 ± 5%

Log K HSA [1]: 1.69
Compound: COc1ccc(Cl)cc1C(=O)NCCc1ccc(S(=O)(=O)NC(=O)NC2CCCCC2)cc1 [Glibenclamide]
Lit. HSA % [2]: 99.00%

Compound: Oc1ccccc1 [Phenol]
Log K HSA [1]: −0.59 | Lit. HSA % [2]: 20.69%

Compound: CCCN(CCC)S(=O)(=O)c1ccc(C(=O)O)cc1 [Probenecid]
Lit. HSA % [2]: 95.00%

Compound: CC(C)(C)[Si](F)(c1ccc(C(=O)NC[C@@H](NC(=O)CCC(C(=O)O)N2CCN(CC(=O)O)CCN(CC(=O)O)CCN(CC(=O)O)CC2)C(=O)N[C@H](CCCCNC(=O)CCCCCCC(=O)NCCCC[C@H](NC(=O)N[C@@H](CCC(=O)O)C(=O)O)C(=O)O)C(=O)O)cc1)C(C)(C)C (some centres unmarked) [ligand 5, PSMA-SIFA1]
IC50 [4, 8]: 6.4 ± 0.2 nM | IC50 [4, 9]: 7.3 ± 0.2 nM | logD [5, 10]: -2.75 ± 0.07 | Internalization [3, 11]: 33.0 ± 2.1%

Compound: CC(C)(C)[Si](F)(c1ccc(C(=O)NC[C@@H](C(=O)N[C@H](CCCCNC(=O)CCCCCCC(=O)NCCCC[C@H](NC(=O)N[C@@H](CCC(=O)O)C(=O)O)C(=O)O)C(=O)O)n2cc(CNC(=O)CCP(=O)(O)CN3CCN(CP(=O)(O)CCC(=O)O)CCN(CP(=O)(O)CCC(=O)O)CC3)nn2)cc1)C(C)(C)C [ligand 6, PSMA-SIFA2]
IC50 [4, 8]: 8.5 ± 1.7 nM | IC50 [4, 9]: 10.8 ± 2.5 nM | logD [5, 10]: -3 ± 0.09 | Internalization [3, 11]: 43.0 ± 3.4%

Compound: CC(C)(C)[Si](F)(c1ccc(C(=O)N[C@H](CNC(=O)CCC(C(=O)O)N2CCN(CC(=O)O)CCN(CC(=O)O)CCN(CC(=O)O)CC2)C(=O)N[C@H](CCCCNC(=O)CCC(=O)NCCC[C@@H](NC(=O)CC[C@H](NC(=O)N[C@@H](CCC(=O)O)C(=O)O)C(=O)O)C(=O)O)C(=O)O)cc1)C(C)(C)C (some centres unmarked) [ligand 8, PSMA-SIFA4]
HSA binding ([6]; natGa-natF-L): 96.5% | HSA binding ([6]; natLu-natF-L): 97.7% | IC50 [4, 8]: 2.5 ± 0.2 nM | IC50 [4, 9]: 3.8 ± 0.7 nM | IC50 ([4]; IC50, natLu-natF-L, 1 h, 4° C., mean ± SD): 3 ± 0.2 nM | logD [5, 12]: -2.25 ± 0.07 | logD [5, 10]: -2.59 ± 0.04 | logD ([5]; pH 7.4, 177Lu-natF-L, n-octanol/PBS pH 7.4): -3.75 ± 0.06 | Internalization [3, 13]: 130.3 ± 5.5% | Internalization [3, 11]: 98.2 ± 12.4% | Internalization [3, 14]: 165.9 ± 8.5%

Compound: CC(C)(C)[Si](F)(c1ccc(C(=O)NC[C@@H](C(=O)N[C@H](CCCCNC(=O)CCC(=O)NCCC[C@@H](NC(=O)CC[C@H](NC(=O)N[C@@H](CCC(=O)O)C(=O)O)C(=O)O)C(=O)O)C(=O)O)n2cc(CNC(=O)CCP(=O)(O)CN3CCN(CP(=O)(O)CCC(=O)O)CCN(CP(=O)(O)CCC(=O)O)CC3)nn2)cc1)C(C)(C)C [ligand 9, PSMA-SIFA5]
HSA binding ([6]; natGa-natF-L): 95.1% | IC50 [4, 8]: 4.3 ± 0.2 nM | IC50 [4, 9]: 4.5 ± 0.3 nM | logD [5, 12]: -2.23 ± 0.07 | logD [5, 10]: -3.26 ± 0.06 | Internalization [3, 13]: 211.6 ± 5.3% | Internalization [3, 11]: 176.9 ± 11.7%

Compound: CC(C)(C)[Si](F)(c1ccc(C(=O)NCC(NC(=O)CN2CCN(CC(=O)O)CCN(CC(=O)O)CCN(CC(=O)O)CC2)C(=O)NC(CCCCNC(=O)CCC(=O)NCCCC(NC(=O)CC[C@H](NC(=O)N[C@@H](CCC(=O)O)C(=O)O)C(=O)O)C(=O)O)C(=O)O)cc1)C(C)(C)C (some centres unmarked) [ligand 10]
HSA binding ([6]; natLu-natF-L): 94.0% | IC50 [4, 15]: 2.8 ± 0.7 nM | logD [5, 16]: -3.59 ± 0.05 | Internalization [3, 14]: 184.1 ± 16%

Compound: CC(C)(C)[Si](F)(c1ccc(C(=O)NC(CNC(=O)CN2CCN(CC(=O)O)CCN(CC(=O)O)CCN(CC(=O)O)CC2)C(=O)NC(CCCCNC(=O)CCC(=O)NCCCC(NC(=O)CC[C@H](NC(=O)N[C@@H](CCC(=O)O)C(=O)O)C(=O)O)C(=O)O)C(=O)O)cc1)C(C)(C)C (some centres unmarked) [ligand 11]
HSA binding ([6]; natLu-natF-L): 92.4% | IC50 [4, 15]: 4.8 ± 0.7 nM | logD [5, 16]: -3.62 ± 0.06 | Internalization [3, 14]: 134.5 ± 18.5%

Compound: PSMA-1007 [reference compound]
IC50 ([4]; references, read-out: IC50): 4.2 nM | Internalization ([3]; references): PSMA-1007 118 ± 4%

Compound: SIFA-Asn(AcNH-β-Glc)-PEG-Tyr^3-octreotate
log P(ow) [7]: 0.96

Compound: SIFA-Asn(AcNH-β-Glc)-Tyr^3-octreotate
log P(ow) [7]: 1.23
